The record followed here is patent US20230131025A1, “QUINOLYL PHOSPHINE OXIDE COMPOUND, AND COMPOSITION AND APPLICATION THEREOF” (Betta Pharmaceuticals Co., Ltd., priority 2020, published 2023).

Assay [1] has as its target IGF1R (Homo sapiens, UniProt P08069). The assay is described as follows: Kinase inhibition assay (mobility shift). Format: biochemical. As for the experimental part:
(§1) Experiment 1 Kinase Inhibition Assay Mobility shift assays were performed to determine inhibitory activity of compounds against EGFR^Δ19del/T790M/C797S, EGFR WT and IGF1R kinases. The enzymatic reaction scheme is as follows:
(§2) 1. Preparing 1*Kinase Buffer as follows:
(§3) 2. Preparing compound concentration gradient: the initial concentration of the compound tested in the assay was 3,000 nM or 100 nM, which is then diluted to be 100-fold final concentration in 100% DMSO in a 384-source plate. Compounds in 10 concentrations were diluted in a 3-fold gradient with Precision. 250 nL of compound in 100-fold final concentration was transferred to OptiPlate-384F plate by using a dispenser named Echo 550.
(§4) 3. Preparing kinase solution at 2.5-fold the final concentration with 1×kinase buffer.
(§5) 4. Adding 10 μL of kinase solution at 2.5-fold the final concentration to compound wells and positive control wells respectively; and adding 10 μL of 1×kinase buffer to negative control wells.
(§6) 5. Centrifuging the wells at 1,000 rpm for 30 seconds, mixing the reaction plate well by shaking and incubating it at room temperature for 10 minutes.
(§7) 6. Preparing a mixed solution of ATP and kinase substrate at 5-fold/3-fold the final concentration with 1×Kinase buffer, respectively.
(§8) 7. Initiating the reaction by adding 15 μL of the mixed solution of ATP and kinase substrate at 5-fold/3-fold the final concentration.
(§9) 8. Centrifuging the 384-well plate at 1,000 rpm for 30 seconds, mixing the reaction plate well by shaking and incubating it at room temperature for a corresponding time.
(§10) 9. Adding 30 μL of assay stop solution to stop the kinase reaction, and centrifuging the plate at 1,000 rpm for 30 seconds and mixing it well by shaking.
(§11) 10. Reading the conversion rate with Caliper EZ Reader.
(§12) [formula] • wherein, “Conversion % sample” is the conversion rate reading of the sample;
(§13) “Conversion %_min” is the mean value of the negative control wells, representing the conversion rate readings of the well without enzymatic activity; “Conversion %_max” is the mean value of the positive control wells, representing the conversion rate readings of the wells without compound inhibition. • Dose-response curve is plotted with the logarithmic concentration on the X-axis and percent inhibition on the Y-axis. The fitting of the dose-response curve is made with the module “log(inhibitor) vs. response—Variable slope” of the analysis software GraphPad Prism 5, so that the IC50 value of each compound on enzymatic activity is obtained. • The calculation formula is: Y=Bottom+(Top−Bottom)/(1+10^((Log IC50−X)*HillSlope)).

Assay [2] addresses EGFR Δ19del/T790M/C797S (Homo sapiens, UniProt P00533, T790M/C797S, form not given). The assay is described as follows: Kinase inhibition assay (mobility shift). Format: biochemical. On the procedure:
as §1, §2, §3, §4, §5, §6, §7, §8, §9, §10, §11, §12, §13

Assay [3] concerns the target EGFR WT (Homo sapiens, UniProt P00533). The assay is described as follows: Kinase inhibition assay (mobility shift). Format: biochemical. As for the experimental part: as §1, §2, §3, §4, §5, §6, §7, §8, §9, §10, §11, §12, §13
Assay [4] addresses Ba/F3 EGFR WT (Homo sapiens, UniProt P00533). The assay is described as follows: Cell proliferation experiment (CellTiter Glo, 72 hours). It counts as cell-based. As to conditions: read-out: BaF3 EGFR WT IC50. The procedure, abridged: (§14)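 Ba/F3 cells overexpressing EGFR Δ19del/T790M/C797S or EGFR WT were seeded at 2000 or 3000 cells/well and exposed 72 h to 9 compound concentrations (3-fold, top 10000 or 1111 nM final, 0.1% DMSO). CellTiter-Glo luminescence gave survival inhibition versus controls; IC50 from nonlinear fit.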

Assay [5] deals with Ba/F3-Δ19del/T790M/C797S (Homo sapiens, UniProt P00533, T790M/C797S, cells depend on it, form not given). The assay is described as above. Format: cell-based. As to conditions: read-out: Ba/F3/EGFR Δ19del/T790M/C797S IC50. The essentials:
as §14

Assay [6] concerns human epidermal cancer cells A431 carrying EGFR WT. Described as above. Format: cell-based. As to conditions: Homo sapiens, A-431. The procedure, abridged:
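Cells seeded at 2000 or 3000/well and exposed 72 h to 9-point 3-fold dilutions, top final 10000 nM or 1111 nM, 0.1% DMSO. Viability by CellTiter-Glo luminescence. Inhibition relative to cell and medium controls; IC50 by four-parameter nonlinear regression.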

Structures are written as SMILES.

EGFR WT, sequence (P00533 25-1210): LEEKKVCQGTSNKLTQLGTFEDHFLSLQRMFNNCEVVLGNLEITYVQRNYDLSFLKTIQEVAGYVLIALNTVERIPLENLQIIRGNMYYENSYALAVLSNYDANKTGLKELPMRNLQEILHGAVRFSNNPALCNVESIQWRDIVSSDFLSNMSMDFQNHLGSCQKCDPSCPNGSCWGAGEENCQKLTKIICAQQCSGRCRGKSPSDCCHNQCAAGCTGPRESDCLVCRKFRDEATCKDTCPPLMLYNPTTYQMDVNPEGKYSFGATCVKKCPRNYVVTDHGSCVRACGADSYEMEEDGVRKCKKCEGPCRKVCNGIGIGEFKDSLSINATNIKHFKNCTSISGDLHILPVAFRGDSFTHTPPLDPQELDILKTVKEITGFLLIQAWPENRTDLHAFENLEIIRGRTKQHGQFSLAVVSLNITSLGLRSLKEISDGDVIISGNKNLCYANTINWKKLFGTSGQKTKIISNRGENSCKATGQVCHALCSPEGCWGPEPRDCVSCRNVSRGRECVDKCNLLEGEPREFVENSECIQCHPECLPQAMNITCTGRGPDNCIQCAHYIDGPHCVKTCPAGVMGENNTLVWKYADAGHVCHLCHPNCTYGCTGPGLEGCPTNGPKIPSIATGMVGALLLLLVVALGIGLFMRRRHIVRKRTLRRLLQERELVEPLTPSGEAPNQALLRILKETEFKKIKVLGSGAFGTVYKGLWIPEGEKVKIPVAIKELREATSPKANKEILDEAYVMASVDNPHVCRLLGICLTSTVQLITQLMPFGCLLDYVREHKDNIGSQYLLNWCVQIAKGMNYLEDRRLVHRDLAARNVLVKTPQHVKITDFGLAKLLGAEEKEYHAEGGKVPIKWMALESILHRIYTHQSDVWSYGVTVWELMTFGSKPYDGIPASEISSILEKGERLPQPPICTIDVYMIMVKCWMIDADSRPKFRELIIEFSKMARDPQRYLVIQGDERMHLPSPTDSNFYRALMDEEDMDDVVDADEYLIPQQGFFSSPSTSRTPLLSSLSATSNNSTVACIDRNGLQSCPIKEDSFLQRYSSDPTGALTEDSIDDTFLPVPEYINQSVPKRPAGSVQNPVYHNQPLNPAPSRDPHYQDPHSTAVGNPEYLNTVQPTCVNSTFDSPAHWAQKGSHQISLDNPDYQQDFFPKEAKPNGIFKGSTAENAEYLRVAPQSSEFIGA
Ba/F3 EGFR WT, sequence (P00533 whole entry, stated change not applied): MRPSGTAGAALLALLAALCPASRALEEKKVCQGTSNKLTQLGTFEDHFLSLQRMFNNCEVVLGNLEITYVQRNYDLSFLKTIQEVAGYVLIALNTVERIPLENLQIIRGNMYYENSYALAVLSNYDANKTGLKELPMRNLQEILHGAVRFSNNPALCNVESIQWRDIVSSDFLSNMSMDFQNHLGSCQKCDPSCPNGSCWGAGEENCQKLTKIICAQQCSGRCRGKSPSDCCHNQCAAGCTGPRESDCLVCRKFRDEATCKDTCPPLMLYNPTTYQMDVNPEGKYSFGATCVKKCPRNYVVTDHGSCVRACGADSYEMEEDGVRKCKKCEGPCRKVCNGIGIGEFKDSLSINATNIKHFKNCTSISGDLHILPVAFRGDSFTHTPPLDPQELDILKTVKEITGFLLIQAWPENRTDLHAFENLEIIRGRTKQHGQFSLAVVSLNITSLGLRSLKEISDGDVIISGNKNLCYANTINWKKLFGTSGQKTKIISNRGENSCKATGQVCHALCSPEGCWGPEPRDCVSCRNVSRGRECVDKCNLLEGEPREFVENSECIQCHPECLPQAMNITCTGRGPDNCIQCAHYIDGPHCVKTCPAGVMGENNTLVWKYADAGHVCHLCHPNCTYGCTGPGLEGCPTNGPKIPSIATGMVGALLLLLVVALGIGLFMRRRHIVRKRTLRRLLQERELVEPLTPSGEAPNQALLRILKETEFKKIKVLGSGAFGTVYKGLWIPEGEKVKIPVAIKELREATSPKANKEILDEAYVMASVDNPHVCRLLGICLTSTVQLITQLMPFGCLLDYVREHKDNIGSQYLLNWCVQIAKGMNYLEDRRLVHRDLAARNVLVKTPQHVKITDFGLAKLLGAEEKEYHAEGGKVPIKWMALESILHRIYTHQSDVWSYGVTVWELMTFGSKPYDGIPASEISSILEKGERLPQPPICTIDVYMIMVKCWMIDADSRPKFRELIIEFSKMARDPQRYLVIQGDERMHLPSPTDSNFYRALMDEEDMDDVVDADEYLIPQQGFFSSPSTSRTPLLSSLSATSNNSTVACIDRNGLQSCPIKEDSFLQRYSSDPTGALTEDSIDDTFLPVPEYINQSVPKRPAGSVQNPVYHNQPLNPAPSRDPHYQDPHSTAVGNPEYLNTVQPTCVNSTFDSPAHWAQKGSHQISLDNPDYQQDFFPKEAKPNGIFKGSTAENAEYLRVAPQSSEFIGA
IGF1R, sequence (P08069 31-1367, species assumed): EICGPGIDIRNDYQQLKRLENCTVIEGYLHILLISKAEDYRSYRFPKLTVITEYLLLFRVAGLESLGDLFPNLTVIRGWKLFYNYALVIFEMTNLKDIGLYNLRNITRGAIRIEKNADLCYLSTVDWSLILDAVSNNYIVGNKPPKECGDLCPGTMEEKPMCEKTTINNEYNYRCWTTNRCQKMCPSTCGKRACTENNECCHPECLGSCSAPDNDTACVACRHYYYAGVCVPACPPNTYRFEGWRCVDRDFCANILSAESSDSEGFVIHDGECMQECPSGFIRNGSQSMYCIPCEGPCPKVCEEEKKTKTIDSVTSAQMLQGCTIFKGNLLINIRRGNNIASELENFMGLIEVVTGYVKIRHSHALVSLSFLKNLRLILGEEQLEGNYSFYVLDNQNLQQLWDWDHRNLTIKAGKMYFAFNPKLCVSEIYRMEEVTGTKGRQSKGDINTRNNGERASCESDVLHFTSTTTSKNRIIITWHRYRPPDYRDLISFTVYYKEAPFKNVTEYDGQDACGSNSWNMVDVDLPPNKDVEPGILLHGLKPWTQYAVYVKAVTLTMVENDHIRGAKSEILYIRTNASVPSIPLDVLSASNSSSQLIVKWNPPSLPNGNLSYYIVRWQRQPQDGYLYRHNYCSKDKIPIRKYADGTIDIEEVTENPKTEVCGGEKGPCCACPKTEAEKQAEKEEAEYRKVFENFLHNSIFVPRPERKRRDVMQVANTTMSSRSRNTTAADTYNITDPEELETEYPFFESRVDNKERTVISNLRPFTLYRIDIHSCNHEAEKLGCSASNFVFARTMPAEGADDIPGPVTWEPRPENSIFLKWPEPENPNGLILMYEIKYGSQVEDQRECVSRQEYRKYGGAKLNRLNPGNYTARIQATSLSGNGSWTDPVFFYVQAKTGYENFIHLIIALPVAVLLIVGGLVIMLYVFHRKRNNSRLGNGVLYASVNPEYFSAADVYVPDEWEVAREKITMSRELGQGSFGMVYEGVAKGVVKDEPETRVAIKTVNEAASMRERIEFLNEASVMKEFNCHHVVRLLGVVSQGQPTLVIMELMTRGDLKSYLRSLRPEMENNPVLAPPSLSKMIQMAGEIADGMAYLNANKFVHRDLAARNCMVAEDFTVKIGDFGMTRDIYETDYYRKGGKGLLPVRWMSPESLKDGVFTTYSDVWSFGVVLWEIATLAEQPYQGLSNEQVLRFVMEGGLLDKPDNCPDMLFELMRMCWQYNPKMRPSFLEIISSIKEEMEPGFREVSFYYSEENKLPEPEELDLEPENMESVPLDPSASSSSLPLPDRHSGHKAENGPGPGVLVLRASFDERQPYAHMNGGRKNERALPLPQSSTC
Ba/F3-Δ19del/T790M/C797S, sequence (P00533 with tags, fused parts or gaps DEL746-750/T790M/C797S, form open): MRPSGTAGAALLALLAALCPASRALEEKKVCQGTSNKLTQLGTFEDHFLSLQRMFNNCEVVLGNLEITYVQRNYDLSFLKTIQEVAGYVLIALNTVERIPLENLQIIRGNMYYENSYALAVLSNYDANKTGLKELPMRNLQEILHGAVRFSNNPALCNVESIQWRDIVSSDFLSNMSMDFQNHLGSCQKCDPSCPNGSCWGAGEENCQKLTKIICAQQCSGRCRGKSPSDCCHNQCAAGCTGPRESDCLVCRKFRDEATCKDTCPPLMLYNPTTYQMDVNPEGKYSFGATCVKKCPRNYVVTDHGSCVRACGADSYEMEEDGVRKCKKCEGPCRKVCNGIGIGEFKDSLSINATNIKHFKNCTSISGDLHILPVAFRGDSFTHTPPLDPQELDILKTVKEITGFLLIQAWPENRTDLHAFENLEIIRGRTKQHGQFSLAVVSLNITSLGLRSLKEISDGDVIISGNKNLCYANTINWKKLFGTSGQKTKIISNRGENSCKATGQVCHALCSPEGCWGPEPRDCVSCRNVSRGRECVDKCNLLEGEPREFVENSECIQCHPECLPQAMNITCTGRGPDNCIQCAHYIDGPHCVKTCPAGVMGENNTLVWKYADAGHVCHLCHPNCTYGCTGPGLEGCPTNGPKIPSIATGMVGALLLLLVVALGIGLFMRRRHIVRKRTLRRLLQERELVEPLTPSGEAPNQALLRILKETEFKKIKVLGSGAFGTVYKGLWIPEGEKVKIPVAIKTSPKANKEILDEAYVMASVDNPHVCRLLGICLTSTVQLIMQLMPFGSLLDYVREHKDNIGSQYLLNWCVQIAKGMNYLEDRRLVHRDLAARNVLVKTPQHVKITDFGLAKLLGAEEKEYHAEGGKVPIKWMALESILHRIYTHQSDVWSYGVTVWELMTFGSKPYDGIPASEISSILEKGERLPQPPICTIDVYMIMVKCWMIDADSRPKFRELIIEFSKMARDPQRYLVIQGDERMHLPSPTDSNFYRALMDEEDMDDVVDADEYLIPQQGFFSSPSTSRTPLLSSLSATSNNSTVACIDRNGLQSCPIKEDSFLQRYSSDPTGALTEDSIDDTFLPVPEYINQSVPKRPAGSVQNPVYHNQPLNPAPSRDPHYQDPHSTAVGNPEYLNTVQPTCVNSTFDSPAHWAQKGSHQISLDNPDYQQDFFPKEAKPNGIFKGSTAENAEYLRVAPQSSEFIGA

Consider `COc1cc(N2CCN(C)CC2)c(C)cc1Nc1ncc(Br)c(Nc2ccc3nc(C4CC4)ccc3c2P(C)(C)=O)n1` [Compound J-010, (6-((5-Bromo-2-((2-methoxy-5-methyl-4-(4-methylpiperazin-1-yl)phenyl)amino)pyrimidin-4-yl)amino)-2-cyclopropylquinolin-5-yl)dimethylphosphine oxide], for which the IC50 in assay [1] amounted to 142 nM; in assay [2], 0.2 nM; in assay [3], 79 nM; in assay [6], 969 nM. Besides, the results for the GI50 in assay [4] and in assay [5] were 187 nM and 11.5 nM, respectively.

For `CCc1cc(Nc2ncc(Br)c(Nc3ccc4nc(C5CC5)ccc4c3P(C)(C)=O)n2)c(OC)cc1N1CCN(C)CC1` [Compound J-011, (6-((5-Bromo-2-((5-ethyl-2-methoxy-4-(4-methylpiperazin-1-yl)phenyl)amino)pyrimidin-4-yl)amino)-2-cyclopropylquinolin-5-yl)dimethylphosphine oxide], the IC50 in assay [1] is 146 nM; in assay [2], 0.7 nM; in assay [3] it was 45.8 nM; in assay [6], 1160 nM. Moreover, the results for the GI50 in assay [4] and in assay [5] were 190 nM and 4.7 nM, respectively.

Take `COc1cc(N2CCN(C)CC2)c(C#N)cc1Nc1ncc(Br)c(Nc2ccc3nc(C4CC4)ccc3c2P(C)(C)=O)n1` [Compound J-012, 5-((5-Bromo-4-((2-cyclopropyl-5-(dimethylphosphineoxide)quinolin-6-yl)amino)pyrimidin-2-yl)amino)-4-methoxy-2-(4-methylpiperazin-1-yl)benzonitrile]: the IC50 in assay [1] came out at 279 nM; in assay [2] it was 0.2 nM; in assay [3] it was 43.9 nM; in assay [6], 830 nM. For the same compound, the results for the GI50 in assay [4] and in assay [5] were 130 nM and 3.4 nM, respectively.

In the case of `C#Cc1ccc2c(P(C)(C)=O)c(Nc3nc(Nc4cc(C)c(N5CCC(N6CCN(C)CC6)CC5)cc4OC)ncc3Br)ccc2n1` [Compound J-013, (6-((5-Bromo-2-((2-methoxy-5-methyl-4-(4-(4-methylpiperazin-1 yl)piperidin-1-yl)phenyl)amino)pyrimidin-4-yl)amino)-2-ethynylquinolin-5-yl)dimethylphosphine oxide], the IC50 in assay [1] came out at 28.2 nM; in assay [2], 0.4 nM; in assay [3] it was 11.4 nM; in assay [6] it was 308 nM. Moreover, the GI50 in assay [4] was determined as 87 nM; in assay [5], 15.3 nM.

Take `C#Cc1ccc2c(P(C)(C)=O)c(Nc3nc(Nc4cc(CC)c(N5CCC(N6CCN(C)CC6)CC5)cc4OC)ncc3Br)ccc2n1` [Compound J-014, (6-((5-Bromo-2-((5-ethyl-2-methoxy-4-(4-(4-methylpiperazin-1-yl)piperidin-1-yl)phenyl)amino)pyrimidin-4-yl)amino)-2-ethynylquinolin-5-yl)dimethylphosphine oxide]: the IC50 in assay [1] worked out at 58 nM; in assay [2], 0.19 nM; in assay [3] it was 4.7 nM; in assay [6] it was 514 nM. For the same compound, the GI50 in assay [4] was 108 nM; in assay [5], 6 nM.

As for `C#Cc1ccc2c(P(C)(C)=O)c(Nc3nc(Nc4cc(OC)c(N5CCC(N6CCN(C)CC6)CC5)cc4C)ncc3Br)ccc2n1` [Compound J-015, (6-((5-Bromo-2-((5-methoxy-2-methyl-4-(4-(4-methylpiperazin-1-yl)piperidin-1-yl)phenyl)amino)pyrimidin-4-yl)amino)-2-ethynylquinolin-5-yl)dimethylphosphine oxide], the IC50 in assay [1] turned out to be 12.1 nM; in assay [2] it was 0.29 nM; in assay [3], 12.1 nM; in assay [6], 678 nM. For the same compound, the GI50 is 388 nM in assay [4] and 15.8 nM in assay [5].

On to `CCc1cc(Nc2ncc(Br)c(Nc3ccc4nc(C#N)ccc4c3P(C)(C)=O)n2)c(OC)cc1N1CCC(N2CCN(C)CC2)CC1` [Compound J-016, 6-((5-Bromo-2-((5-ethyl-2-methoxy-4-(4-(4-methylpiperazin-1-yl)piperidin-1-yl)phenyl)amino)pyrimidin-4-yl)amino)-5-(dimethylphosphineoxide)quinoline-2-formonitrile], for which the IC50 was found to be 16.8 nM in assay [1], 0.3 nM in assay [2], 4.6 nM in assay [3] and 379 nM in assay [6]. In addition, the GI50 in assay [4] was 132 nM; in assay [5], 5.1 nM.

In the case of `CCc1cc(Nc2ncc(Br)c(Nc3ccc4nc(C5CC5)ccc4c3P(C)(C)=O)n2)c(OC)cc1N1CCC(N2CCN(C)CC2)CC1` [Compound J-018, (6-((5-Bromo-2-((5-ethyl-2-methoxy-4-(4-(4-methylpiperazin-1-yl)piperidin-1-yl)phenyl)amino)pyrimidin-4-yl)amino)-2-cyclopropylquinolin-5-yl)dimethylphosphine oxide], the IC50 amounted to 178 nM in assay [1], 0.3 nM in assay [2], 7.3 nM in assay [3] and 1500 nM in assay [6]. For the same compound, the GI50 came to 160 nM in assay [4] and 1.9 nM in assay [5].

For `COc1cc(N2CCC(N3CCN(C)CC3)CC2)c(OC)cc1Nc1ncc(Br)c(Nc2ccc3nc(C4CC4)ccc3c2P(C)(C)=O)n1` [Compound J-020, (6-((5-Bromo-2-((2,5-dimethoxy-4-(4-(4-methylpiperazin-1-yl)piperidin-1-yl)phenyl)amino)pyrimidin-4-yl)amino)-2-cyclopropylquinolin-5-yl)dimethylphosphine oxide], the IC50 was 107 nM in assay [1], 0.72 nM in assay [2], 21 nM in assay [3] and 983 nM in assay [6]. The GI50 in assay [4] is 144 nM; in assay [5], 2.2 nM.

For `COc1cc(N2CCC(N3CCN(C)CC3)CC2)c(C#N)cc1Nc1ncc(Br)c(Nc2ccc3nc(C4CC4)ccc3c2P(C)(C)=O)n1` [Compound J-021, 5-((5-Bromo-4-((2-cyclopropyl-5-(dimethylphosphineoxide)quinolin-6-yl)amino)pyrimidin-2-yl)amino)-4-methoxy-2-(4-(4-methylpiperazin-1-yl)piperidin-1-yl)benzonitrile], the IC50 was 293 nM in assay [1], 0.3 nM in assay [2], 19.3 nM in assay [3] and 1140 nM in assay [6]. Further, the values for the GI50 in assay [4] and in assay [5] were 238 nM and 11.7 nM, respectively.

As for `COc1cc(Nc2ncc(Br)c(Nc3ccc4nc(C5CC5)ccc4c3P(C)(C)=O)n2)c(C)cc1N1CCC(N2CCN(C)CC2)CC1` [Compound J-023, (6-((5-Bromo-2-((5-methoxy-2-methyl-4-(4-(4-methylpiperazin-1-yl)piperidin-J-yl)phenyl)amino)pyrimidin-4-yl)amino)-2-cyclopropylquinolin-5-yl)dimethylphosphine oxide], the IC50 is 27 nM in assay [1], 0.28 nM in assay [2], 17 nM in assay [3] and 877 nM in assay [6]. Besides, the GI50 worked out at 117 nM in assay [4] and 6.4 nM in assay [5].

Turning to `COc1cc(Nc2ncc(Br)c(Nc3ccc4nc(C5CC5)ccc4c3P(C)(C)=O)n2)c(C2CC2)cc1N1CCC(N2CCN(C)CC2)CC1` [Compound J-024, (6-((5-Bromo-2-((2-cyclopropyl-5-methoxy-4-(4-(4-methylpiperazin-1-yl)piperidin-1-yl)phenyl)amino)pyrimidin-4-yl)amino)-2-cyclopropylquinolin-5-yl)dimethylphosphine oxide], the IC50 in assay [1] was 140 nM; in assay [2], 0.5 nM; in assay [3], 114 nM; in assay [6] it was 1380 nM. For the same compound, the GI50 amounted to 373 nM in assay [4] and 26.7 nM in assay [5].
